Reference: patent US5462726A, “Method of inhibiting side effects of solvents containing ricinoleic acid or castor oil or derivatives thereof employing a thromboxane A2 receptor antagonist and pharmaceutical compositions containing such solvents” (priority 1993, dated 1995)
Values after ≈ are worked out from the molar mass of the structure shown. “Also recorded” adds a separate entry of the source. Structures can show the parent of a compound that is named as a salt. Where two headings read alike, the source gives them in different places.

Key:
[1] = test system: Cremophor-induced force development in the jugular vein (thromboxane A2 receptors); assay: Inhibition of Cremophor-induced force in the jugular vein; format: cell-based, rabbit; conditions: for Effect on vasoconstrictor effects of Cremophor (words): indomethacin 10 μM
Experimental: (§1) Male New Zealand white rabbits were euthanized by intravenous barbiturate overdose. The thoracic aorta and the left and right external jugular veins were then removed into warm (37° C.) physiological salt solution (PSS) of the following composition (mM): NaCl, 118.4; KCl, 4.7; CaCl2, 2.5; MgSO4, 1.2; NaHCO3, 24.9; KH2 PO4, 1.2; glucose, 11.1 and EDTA, 0.023; gassed with 95% O2 /5% CO2, pH 7.4. The vessels were cleaned of fat and loose adventitia and subsequently cut into rings 3-4 mm in width. The endothelium was removed from the rings, unless otherwise indicated, by gently rotating a metal probe in the lumen of the ring. The rings were then suspended in water-jacketed (37° C.) 10 ml tissue baths between two wire holders, one of which was attached to a fixed hook and the other to an isometric force transducer. Resting tension was set at 4 g for the aorta and 1 g for the jugular vein. The venous tissues were allowed to stabilize for a period of one hour and then challenged with a maximally effective concentration of bradykinin (1 μM) to evoke a tonic contracture. This response was used as a comparative reference response. Carbachol (1 μM) was introduced into the bath following stabilization of the bradykinin contracture to test for the presence of endothelium. […] The tissues were washed multiple times with fresh PSS and allowed to recover for one hour following complete relaxation from the previous bradykinin response. […] Inhibitors (enzyme or receptor) or their vehicle were introduced into the tissue bath 30 mins prior to the addition of stimulant.
(§2) Cremophor and ricinoleic acid (Sigma Chemical company) were also diluted in ethanol. […] Ricinoleic acid was diluted in ethanol to produce final bath concentrations of (μg/ml; final bath concentration of ethanol in parentheses): 0.1 (0.1%), 0.3 (0.3%), 1.0 (0.37%), 3.0 (0.57%), 10 (0.64%), 30 (0.84%). For reference, 0.1-30 μg/ml ricinoleic acid corresponds to a molar concentration range of 0.335-100.50 μM.
(§3) Force (mean±S.E.) is expressed as a percentage of the corresponding bradykinin or phenylephrine reference response. KB values were determined by Schild analysis and KBapp by the following formula: KBapp =[antagonist]/agonist concentration ratio-1, where agonist concentration ratio=agonist EC50 measured in presence of antagonist/agonist EC50 measured in presence of vehicle. The statistical significance between means was determined using Student's t-test with p<0.05 considered statistically significant.

[2] = target: T1, thromboxane A2 /prostaglandin endoperoxide receptor (Oryctolagus cuniculus, UniProt Q6WQI8); assay: Antagonism of U-46,619-induced force in the jugular vein; format: cell-based; conditions: rabbit jugular vein
T1 sequence (Q6WQI8 1-233): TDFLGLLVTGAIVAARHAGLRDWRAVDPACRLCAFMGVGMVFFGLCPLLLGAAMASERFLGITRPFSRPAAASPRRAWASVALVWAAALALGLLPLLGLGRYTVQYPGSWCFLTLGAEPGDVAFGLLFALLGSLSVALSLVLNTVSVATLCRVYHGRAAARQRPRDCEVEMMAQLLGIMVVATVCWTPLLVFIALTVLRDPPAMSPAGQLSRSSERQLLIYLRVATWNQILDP
Experimental: as §1, with “stimulant. […]” for “stimulant.”
as §3

[3] = test system: Cremophor-induced force in the aorta (thromboxane A2 receptors); assay: Antagonism of Cremophor-induced force in the aorta; format: cell-based, rabbit
Experimental: Male New Zealand white rabbits were euthanized by intravenous barbiturate overdose. The thoracic aorta and the left and right external jugular veins were then removed into warm (37° C.) physiological salt solution (PSS) of the following composition (mM): NaCl, 118.4; KCl, 4.7; CaCl2, 2.5; MgSO4, 1.2; NaHCO3, 24.9; KH2 PO4, 1.2; glucose, 11.1 and EDTA, 0.023; gassed with 95% O2 /5% CO2, pH 7.4. The vessels were cleaned of fat and loose adventitia and subsequently cut into rings 3-4 mm in width. The endothelium was removed from the rings, unless otherwise indicated, by gently rotating a metal probe in the lumen of the ring. The rings were then suspended in water-jacketed (37° C.) 10 ml tissue baths between two wire holders, one of which was attached to a fixed hook and the other to an isometric force transducer. Resting tension was set at 4 g for the aorta and 1 g for the jugular vein. […]
as §3

[4] = test system: ricinoleic acid-induced force in the jugular vein (thromboxane A2 receptors); assay: Antagonism of ricinoleic acid-induced force in the jugular vein; format: cell-based, rabbit; conditions: for Effect on ricinoleic acid-induced force (words): indomethacin, vein only
Experimental: as §1, with “stimulant. A similar procedure was followed for the aorta except the effects of carbachol (1 μM) were tested against a submaximal concentration of phenylephrine (0.3 μM) and 30 μM phenylephrine was used to establish a reference contracture.” for “stimulant.”
as §2, §3

[5] = target: T2, ricinoleic acid-induced force in the aorta (thromboxane A2 receptors) (Oryctolagus cuniculus, UniProt Q6WQI8); assay: Antagonism of ricinoleic acid-induced force in the aorta; format: cell-based, rabbit
T2 sequence (Q6WQI8 1-233): T1 sequence (Q6WQI8 1-233)
Experimental: as §1, with “stimulant. […]” for “stimulant.”
as §3

jugular vein [6] = assay: Effect on ethanol-induced contraction of the jugular vein; format: cell-based, rabbit; conditions: 0.1 or 1 μM BMS-180291; n=3
[7] = target: thromboxane A2 /prostaglandin endoperoxide receptor; conditions: against U-46,619-induced force; rat aorta; Ogletree et al 1993; cited from earlier work
[8] = target: T1, thromboxane A2 /prostaglandin endoperoxide receptor; conditions: against U-46,619-induced force; rabbit aorta; S. Moreland, unpublished; cited from earlier work
[9] = test system: U-46,619-evoked platelet shape change; conditions: Ogletree et al 1993; cited from earlier work
[10] = test system: U-46,619-induced platelet aggregation; conditions: Ogletree et al 1993; cited from earlier work
thromboxane A2 receptors = assay: Potency of U-46,619 across rabbit jugular vein, rabbit aorta and rat aorta; format: cell-based; conditions: rabbit aorta, rat aorta, present study and cited work
[11] = test system: tissues with an intact endothelium; assay: Relaxation of endothelium-intact tissues by carbachol; format: cell-based, rabbit; conditions: Oryctolagus cuniculus; carbachol (1 μM) on bradykinin contracture
Experimental: Male New Zealand white rabbits were euthanized by intravenous barbiturate overdose. The thoracic aorta and the left and right external jugular veins were then removed into warm (37° C.) physiological salt solution (PSS) of the following composition (mM): NaCl, 118.4; KCl, 4.7; CaCl2, 2.5; MgSO4, 1.2; NaHCO3, 24.9; KH2 PO4, 1.2; glucose, 11.1 and EDTA, 0.023; gassed with 95% O2 /5% CO2, pH 7.4. The vessels were cleaned of fat and loose adventitia and subsequently cut into rings 3-4 mm in width. The endothelium was removed from the rings, unless otherwise indicated, by gently rotating a metal probe in the lumen of the ring. The rings were then suspended in water-jacketed (37° C.) 10 ml tissue baths between two wire holders, one of which was attached to a fixed hook and the other to an isometric force transducer. Resting tension was set at 4 g for the aorta and 1 g for the jugular vein. The venous tissues were allowed to stabilize for a period of one hour and then challenged with a maximally effective concentration of bradykinin (1 μM) to evoke a tonic contracture. This response was used as a comparative reference response. Carbachol (1 μM) was introduced into the bath following stabilization of the bradykinin contracture to test for the presence of endothelium. […]

[12] = target: T3, CsA-induced force development in the jugular vein (thromboxane A2 receptors) (Oryctolagus cuniculus, UniProt Q6WQI8); assay: Inhibition of CsA-induced force in the jugular vein; format: cell-based, rabbit; conditions: for Effect on potency and maximal contractile effect of CsA (words): phentolamine 10 μM
T3 sequence (Q6WQI8 1-233): T1 sequence (Q6WQI8 1-233)
Experimental: as §1, §2, §3

jugular vein [13] = assay: Force development in isolated jugular vein rings; format: cell-based, rabbit (male New Zealand white); conditions: for Force development / vasoconstriction (result in words): cumulative addition, isolated vessel; for EC50: read-out: EC50 for ricinoleic acid-induced force
Experimental: as §1, §2, §3

thromboxane A2 receptor = conditions: dog coronary artery, Cocks et al 1990; cited from earlier work
aorta = assay: Force development in isolated thoracic aorta rings; format: cell-based, rabbit (male New Zealand white)
Experimental: as §1, with “stimulant. […]” for “stimulant.”
as §3

rat aorta = assay: Ricinoleic acid force development in rat aorta; format: cell-based
[14] = Solubility in physiological salt solution bath; format: physicochemical; conditions: pH 7.4, ricinoleic acid in tissue bath, read-out: Concentration at which precipitation begins

CCCCCNC(=O)c1coc(C2C3CCC(O3)C2Cc2ccccc2CCC(=O)O)n1 (stereo not drawn) [BMS-180291, [1S-[1α, 2α, 3α, 4α)]-2-[[3-[[4-(pentylamino)carbonyl]-2-oxazolyl]-7-oxabicyclo [2.2.1]hept-2-yl]-methyl]benzenepropanoic acid, sodium salt]
inhibition at 0.1 µM ([1]; Oryctolagus cuniculus, 0.1 μM BMS-180291, Cremophor 39 μg/ml, n=4, read-out: Relaxation of Cremophor-precontracted jugular vein): 85.6 ± 3.9%
Nature of antagonism of Cremophor-induced responses ([1]; preincubation with BMS-180291 (10-300 nM), sodium salt): consistent with non-competitive antagonism; also recorded: apparently non-competitive fashion
Kb ([2]; against U-46,619-induced force): 3.6 nM
Schild slope ([2]; against U-46,619-induced force): 1.0
Nature of antagonism of U-46,619-induced force ([2]; sodium salt): apparently competitive antagonist
Effect on Cremophor-induced force in the aorta ([3]; BMS-180291): inhibited
Kb ([3]; Oryctolagus cuniculus, against Cremophor-induced force, assuming competitive antagonism, 0.03 μM BMS-180291 only, read-out: KBapp): 6.4 nM
Kb ([4]; Oryctolagus cuniculus, against ricinoleic acid, vein, assuming competition, 0.03 and 0.1 μM BMS-180291 only, read-out: KBapp): 1.9 nM
Antagonism of ricinoleic acid-induced force ([4]; vein): concentration-dependent antagonism
Schild slope ([5]; against ricinoleic acid, rabbit aorta): 0.70
Kb ([5]; against ricinoleic acid, rabbit aorta, assuming competition): 4.3 nM
Antagonism of ricinoleic acid-induced force ([5]; aorta): concentration-dependent antagonism
Effect on contractile effects of ethanol (jugular vein [6]): completely refractory
Kb [7]: 0.6 nM
Kb [8]: 4 nM
Nature of antagonism of platelet shape change [9]: apparently competitive fashion
Nature of inhibition of platelet aggregation [10]: apparently non-competitive fashion

CCCCCC(O)C=CC1C2CC(CO2)C1CC=CCCCC(=O)O (centres unmarked) [U-46,619, 11,9-epoxymethano-PGH2]
Potency across the three tissues (thromboxane A2 receptors): approximately equal potency in all three tissues

C[N+](C)(C)CCOC(N)=O [carbachol]
Percent relaxation at 1 µM [11]: 50 to 100%

CC1(C)Oc2ccc(C#N)cc2C(N2CCCC2=O)C1O (centres unmarked) [cromakalim]
Effect on CsA-induced force ([12]; CsA 3 μg/ml, present results): evoke relaxation of CsA (3 μg/ml CsA)-induced force

CCO [ethanol]
Emax at 0.44 % (jugular vein [13]; Oryctolagus cuniculus, cumulative addition of 0.44% ethanol, n=3, read-out: Force as % of bradykinin reference force): 24.1 ± 3.3%
Force development / vasoconstriction (result in words) (jugular vein [13]): constrict the vein

COc1ccc(Cl)cc1C(=O)NCCc1ccc(S(=O)(=O)NC(=O)NC2CCCCC2)cc1 [glyburide]
Schild slope ([12]; against CsA-induced force): 0.7
Kb ([12]; against CsA-induced force, Schild analysis, read-out: KB): 600 nM
Kb ([12]; against CsA-induced force, glyburide 10 μM, n=4, read-out: KBapp): 1500 nM
inhibition at 10 µM ([12]; read-out: Inhibition (reversal) of CsA-induced contraction): 57.1%
Kb ([1]; Oryctolagus cuniculus, against Cremophor-induced force, glyburide 10 μM, n=3, read-out: KBapp): 900 nM
Kb (thromboxane A2 receptor): 600 nM

COc1ccc2c(c1)c(CC(=O)O)c(C)n2C(=O)c1ccc(Cl)cc1 [indomethacin]
Effect on vasoconstrictor effects of Cremophor (words) [1]: The contractile effects of neither ricinoleic acid nor Cremophor were prevented
Effect on vasoconstrictor effects of Cremophor (words) ([1]; listed as Indomethacin): failed to significantly inhibit the vasoconstrictor effects of Cremophor
Effect on ricinoleic acid-induced force (words) [4]: The contractile effects of neither ricinoleic acid nor Cremophor were prevented
Effect on ricinoleic acid-induced force (words) ([4]; listed as Indomethacin): no significant effect on ricinoleic acid-induced force

Cc1ccc(N(CC2=NCCN2)c2cccc(O)c2)cc1 [phentolamine]
Effect on potency and maximal contractile effect of CsA (words) [12]: insensitive to phentolamine; also recorded: failed to antagonize the effects of CsA
Effect on potency and maximal contractile effect of CsA (words) ([12]; listed as Phentolamine): significantly affected neither the potency nor the maximal contractile effect of CsA

CCCCCC[C@@H](O)C/C=C\CCCCCCCC(=O)O [ricinoleic acid]
EC50 (jugular vein [13]; Oryctolagus cuniculus, control for indomethacin comparison, n=4): 0.17 ± 0.05 µg/mL
EC50 (jugular vein [13]; Oryctolagus cuniculus, in presence of indomethacin, n=4): 0.4 ± 0.11 µg/mL
EC50 (jugular vein [13]; Oryctolagus cuniculus, jugular vein, molar conversion): 800 nM
EC50 (jugular vein [13]; Oryctolagus cuniculus, jugular vein, n=9): 0.24 ± 0.04 µg/mL
Force development / vasoconstriction (result in words) (jugular vein [13]): cause vasoconstriction
Force development / vasoconstriction (result in words) (jugular vein [13]; listed as Ricinoleic acid): concentration-dependent increases in force
Fold more potent than Cremophor (jugular vein [13]; in the vein): 165 times
Fold more potent in vein than in aorta (jugular vein [13]; ricinoleic acid, vein vs aorta): approximately 20 times
Thromboxane A2 agonist character (jugular vein [13]; summary conclusion): weak thromboxane A2 agonist
EC50 (aorta; Oryctolagus cuniculus, rabbit aorta, n=5, read-out: EC50 for ricinoleic acid-induced force): 4.7 ± 0.7 µg/mL (≈ 15.7 µM)
Force development (result in words) (aorta; aorta): concentration-dependent increases in force
Fold more potent than Cremophor (aorta; in the aorta): 326 times
Emax at 100 µg/mL (rat aorta; 100 μg/ml ricinoleic acid, rat aorta, n=4, read-out: Force as % of maximum phenylephrine-induced response): 18.8 ± 2.5%
EC50 (rat aorta; rat aorta, n=4, read-out: EC50 for ricinoleic acid-induced force): > 10000 nM
Sensitivity of rat aorta (rat aorta; vs vein or rabbit aorta): considerably less sensitive
solubility [14]: ≥ 100 µg/mL
